# In publication PMC4769088, “Antifungal Activity and Action Mechanism of Histatin 5-Halocidin Hybrid Peptides against Candida ssp” (PLoS ONE, 2016):
# Where a SMILES comes first, the peptide text is derived from it. Bridges are numbered along the chain shown (N, C = ends). Roman numbers before positions name the chains, in order.
# Key:
# [1] = test system: pustulan (β-1,6-glucan polymer), C. albicans cell wall component; assay: Binding/radial diffusion assay with pustulan; assay type: cell-based; details: peptide final 180 μg/ml, pre-incubated 2 h at 37°C, radial diffusion assay
# Procedure: The candidacidal activities of the peptides were tested by using standard microdilution plate assays, radial diffusion assays and broth dilution assay slightly modified from the procedure recommended by the National Committee for Clinical Laboratory Standards. For the candidacidal assays, C. albicans cells were grown in YPD medium and washed twice with 10 mM sodium phosphate buffer (NaPB; Na2HPO4, NaH2PO4, pH 7.4). The cells (1 x 10^6) were then mixed with different concentrations of peptides and incubated at 30°C with constant shaking for 60 min. For energy depletion experiments, cells were pre-incubated with 10 mM NaPB containing 5 mM NaN3 at 30°C for 60 min before the addition of peptides. The cell suspensions were diluted in 10 mM NaPB and aliquots of 500 cells were spread onto YPD agar plates then incubated for 24 h at 30°C to visualize the surviving colonies. Cell survival was expressed as a percentage of that for the control, and the loss of viability was calculated as [1 x (number of colonies from peptide-treated cells/number of colonies from control cells)] x 100. […] The clear-zone diameters were measured to the nearest 0.1 mm and graphed against the peptide concentration. […] The numbers of yeasts were counted using a hemocytometer. […] The antifungal activities were evaluated after 24 h of incubation at 30°C by the observation of visible turbidity the wells. […]
# [2] = test system: L929 cells; assay: Cytotoxic activity (WST-1 cell viability assay); assay type: cell-based, mouse; details: 24 h treatment, WST-1, OD 460 nm
# Procedure: The cytotoxicity of hybrid peptides was evaluated in mouse […] cells (L929, Korean Collection for Type Cultures, KCTC). L929 cells in RPMI1640-10% FBS (100 μL, 3 × 10^5 cells/ml) were seeded in 96-well plates and cultured at 37°C for 24 h in a 5% CO2 incubator. The L929 cells were treated with peptides at predetermined concentrations for 24 h, and 10 μl of EZ-Cytox Cell Viability Assay solution WST-1® (Daeil Lab Service, Korea) were added to each well. Three hours later, the cytotoxicity of peptides against L929 cells was assessed by measuring the optical density at 460 nm using a Perkin Elmer 2030 Reader (Victor X3).
Structure (SMILES),pustulan concentration at which activity began to decrease [1],CC50 [2]
CC(C)C[C@H](NC(=O)[C@@H](N)Cc1c[nH]c2ccccc12)C(=O)N[C@@H](CC(N)=O)C(=O)N[C@@H](C)C(=O)N[C@@H](CCCCN)C(=O)N[C@@H](CCCNC(=N)N)C(=O)N[C@@H](Cc1c[nH]cn1)C(=O)N[C@@H](Cc1c[nH]cn1)C(=O)NCC(=O)N[C@@H](Cc1ccc(O)cc1)C(=O)N[C@@H](CCCCN)C(=O)N[C@@H](CSSC[C@H](NC(=O)[C@H](CCCCN)NC(=O)[C@H](Cc1ccc(O)cc1)NC(=O)CNC(=O)[C@H](Cc1c[nH]cn1)NC(=O)[C@H](Cc1c[nH]cn1)NC(=O)[C@H](CCCNC(=N)N)NC(=O)[C@H](CCCCN)NC(=O)[C@H](C)NC(=O)[C@H](CC(N)=O)NC(=O)[C@H](CC(C)C)NC(=O)[C@@H](N)Cc1c[nH]c2ccccc12)C(=O)N[C@@H](CCCCN)C(=O)N[C@@H](Cc1ccccc1)C(=O)N[C@@H](Cc1c[nH]cn1)C(N)=O)C(=O)N[C@@H](CCCCN)C(=O)N[C@@H](Cc1ccccc1)C(=O)N[C@@H](Cc1c[nH]cn1)C(N)=O [di-WP2] (I: H-WLNAKRHHGYKCKFH-NH2 / II: H-WLNAKRHHGYKCKFH-NH2; disulfide I:12-II:12 (inferred); N-terminus assumed),20 mg/mL,
"CC(C)C[C@H](NC(=O)CNC(=O)[C@H](Cc1c[nH]cn1)NC(=O)[C@H](Cc1c[nH]cn1)NC(=O)[C@H](CC(C)C)NC(=O)[C@H](CC(C)C)NC(=O)[C@H](C)NC(=O)[C@H](CC(N)=O)NC(=O)[C@H](CC(C)C)NC(=O)[C@@H](N)Cc1c[nH]c2ccccc12)C(=O)N[C@@H](CC(N)=O)C(=O)N[C@@H](CSSC[C@H](NC(=O)[C@H](CC(N)=O)NC(=O)[C@H](CC(C)C)NC(=O)CNC(=O)[C@H](Cc1c[nH]cn1)NC(=O)[C@H](Cc1c[nH]cn1)NC(=O)[C@H](CC(C)C)NC(=O)[C@H](CC(C)C)NC(=O)[C@H](C)NC(=O)[C@H](CC(N)=O)NC(=O)[C@H](CC(C)C)NC(=O)[C@@H](N)Cc1c[nH]c2ccccc12)C(=O)N[C@@H](C)C(=O)N[C@@H](CCCCN)C(=O)NCC(=O)N[C@H](C(=O)N[C@@H](CC(C)C)C(=O)N[C@@H](C)C(N)=O)C(C)C)C(=O)N[C@@H](C)C(=O)N[C@@H](CCCCN)C(=O)NCC(=O)N[C@H](C(=O)N[C@@H](CC(C)C)C(=O)N[C@@H](C)C(N)=O)C(C)C [di-18Hc, reference compound] (I: H-WLNALLHHGLNCAKGVLA-NH2 / II: H-WLNALLHHGLNCAKGVLA-NH2; disulfide I:12-II:12 (inferred); N-terminus assumed)",20 mg/mL,72.385 µg/mL
